Results published in PubChem BioAssay (NCI).
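Cultured in 96-well plates, cells were exposed to test compound for 48 hours across five concentrations. TGI: total growth inhibition.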

Key:
Assay in all cases: DTP human tumour cell line panel, 48 h
[1] = tested on: M14 melanoma
[2] = tested on: OVCAR-8 ovarian
[3] = tested on: ACHN renal
[4] = tested on: SK-MEL-28 melanoma
[5] = tested on: MDA-MB-231 breast
[6] = tested on: SNB-19 CNS
[7] = tested on: HCT-116 colon
[8] = tested on: EKVX NSCLC
[9] = tested on: CCRF-CEM leukemia
[10] = tested on: HOP-62 NSCLC
[11] = tested on: SF-295 CNS
[12] = tested on: SK-MEL-5 melanoma
[13] = tested on: LOX IMVI melanoma
[14] = tested on: MDA-N
[15] = tested on: MDA-MB-435
[16] = tested on: NCI-H460 lung
[17] = tested on: SN12C renal
[18] = tested on: TK-10 renal
[19] = tested on: CAKI-1 renal
[20] = tested on: KM12 colon

| SMILES | TGI [1] [µM] | TGI [2] [µM] | TGI [3] [µM] | TGI [4] [µM] | TGI [5] [µM] | TGI [6] [µM] | TGI [7] [µM] | TGI [8] [µM] | TGI [9] [µM] | TGI [10] [µM] | TGI [11] [µM] | TGI [12] [µM] | TGI [13] [µM] | TGI [14] [µM] | TGI [15] [µM] | TGI [16] [µM] | TGI [17] [µM] | TGI [18] [µM] | TGI [19] [µM] | TGI [20] [µM] |
| --- | --- | --- | --- | --- | --- | --- | --- | --- | --- | --- | --- | --- | --- | --- | --- | --- | --- | --- | --- | --- |
| OCC1COc2cc(Cl)c(Cl)cc2O1 (stereo not given) | > 10 | > 10 | > 10 | > 10 | > 10 | > 10 | > 10 | > 10 | > 10 | > 10 | > 10 | > 10 | > 10 | > 10 | > 10 | > 10 | > 10 | > 10 | > 10 | > 10 |
| COc1nc2cccc(C(O)c3ccccc3)c2nc1-c1ccccc1 (stereo not given) | 21.2 | > 100 | 72.9 | > 100 | 31.9 | 51.1 | 16.2 | 41.9 | 10.8 | 19.1 | 17 | 13.1 | 22 | 5.17 | 4.79 | 24.8 | 25.6 | > 100 | 63.8 | > 100 |
| O=c1[nH]nc(NCc2ccccc2)c2nnn(Cc3ccccc3)c12 | > 100 | > 100 | > 100 | > 100 | > 100 | > 100 | > 100 | > 100 | > 100 | > 100 | > 100 | > 100 | > 100 | > 100 | > 100 | > 100 | > 100 | > 100 | > 100 | > 100 |
